# Data as given in patent publication US12419854B2, “Methods for treating or preventing gout or hyperuricemia” (Arthrosi Therapeutics, Inc., priority 2018, dated 2025).
# Like-named read-outs stand apart in the source and are kept apart here.
# What was measured:
# serum uric acid (sUA) [1] = test: Phase 1 multiple ascending dose study, pharmacodynamics (serum uric acid); type: in vivo, human; conditions: 25, 50 or 75 mg once daily oral capsules, fasted, 10 days; in words
# Excerpt: An additional 6 subjects received placebo.
# Steady-state sUA lowering effect was achieved after approximately 5 days.
# serum uric acid (sUA) [2] = test: Phase 1 single dose study, pharmacodynamics (serum uric acid); type: in vivo, human; conditions: for Percent change in serum uric acid, mean, time-matched (Day-1) baseline: 0 h
# Description: (§1) The dose groups included Cohort 1 (15 mg or placebo, fasted, oral suspension), Cohort 2 (50 mg or placebo, fasted, suspension), Cohort 3 (100 mg or placebo, fasted, oral suspension), Cohort 4 (150 mg or placebo, fasted, oral suspension), Cohort 6 (50 mg or placebo, fed, oral suspension), and Cohort 7 (50 mg or placebo, fasted, oral capsule). […] An additional 8 subjects received placebo.
# Decrease in sUA appeared to reach a plateau at 100 mg or lower.
# [3] = target: T1, human URAT1 uptake transporter (Homo sapiens, UniProt Q96S37); test: Inhibition of URAT1-mediated uric acid uptake in MDCKII cells stably expressing human URAT1; type: cell-based
# T1 construct: expressed in transfected cells
# T1 sequence (Q96S37 1-553): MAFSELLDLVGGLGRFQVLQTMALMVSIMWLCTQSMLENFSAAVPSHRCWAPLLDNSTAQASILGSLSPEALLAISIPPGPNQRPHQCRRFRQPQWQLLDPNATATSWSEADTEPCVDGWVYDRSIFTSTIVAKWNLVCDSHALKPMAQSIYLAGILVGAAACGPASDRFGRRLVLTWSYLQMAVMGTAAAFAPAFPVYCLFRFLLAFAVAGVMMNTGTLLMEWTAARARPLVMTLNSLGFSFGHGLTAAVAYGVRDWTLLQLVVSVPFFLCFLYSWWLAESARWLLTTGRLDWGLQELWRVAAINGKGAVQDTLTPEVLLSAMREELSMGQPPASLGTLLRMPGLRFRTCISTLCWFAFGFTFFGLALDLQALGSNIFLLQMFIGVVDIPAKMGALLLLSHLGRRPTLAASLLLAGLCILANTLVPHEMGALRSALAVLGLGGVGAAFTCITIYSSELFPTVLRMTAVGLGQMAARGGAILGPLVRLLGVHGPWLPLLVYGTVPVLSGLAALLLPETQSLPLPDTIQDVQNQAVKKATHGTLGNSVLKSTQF
# Description: Uptake experiments were performed using MDCKII cells stably expressing the human URAT1 uptake transporter. Cells were cultured at 37+1° C. in an atmosphere of 95:5 air:CO2 and were plated onto standard 96-well tissue culture plates at the cell number described in Table 1.
# Radiolabeled probe substrate transport was determined by measuring an aliquot (35 μL) from each well for liquid scintillation counting.
# [4] = Phase 1 single dose study, plasma pharmacokinetics; type: in vivo, human; conditions: for power model intercept (a) of exposure versus dose: male, human, plasma, oral
# Description: as §1
# The results are consistent with observation in animal testing and higher exposure of S-enantiomer was attributed to the conversion of the R-enantiomer in vivo.
# [5] = In vitro metabolism in human liver microsomes (HPLC-MS profiling); type: in vitro ADME; conditions: for % MS response, Parent: human liver microsomes 0.5 mg/mL, NADPH, 60 minutes, 37° C.
# Description: After pre-warming the mixture at 37° C. for 5 minutes, the reaction was initiated by the addition of 1 mM of NADPH and incubated for 60 minutes at 37° C. in a shaking water bath. The reaction was terminated by the addition of 0.5 mL ice-cold acetonitrile. Time 0 incubation was also performed by adding acetonitrile before the addition of microsomes to the incubation mixture as a reference sample for each species. Following vortex and centrifugation at 15,000 g for 3 minutes at room temperature, resulting supernatant was concentrated under nitrogen flow at 33° C., until approximately 0.5 mL of sample remained. The extract was then transferred to a 1.5-mL centrifuge vial for centrifugation at 15,000 g for 3 minutes. Finally, aliquots of the supernatant were transferred to HPLC vials for HPLC-MS analyses.
# MS Analysis: Mass spectral analyses were performed on an Agilent single quadruple mass spectrometer equipped with an Agilent 1100 HPLC system. The mass spectrometer was fitted with an electrospray ionization (ESI) source and operated in a negative scan mode between 400 and 500 amu:
# Metabolic profiling of benzbromarone was conducted using a similar method as described above.
# Cynomolgus Monkeys = test: 4-week oral toxicity study in cynomolgus monkeys; type: in vivo
# Excerpt: (§2) On Day 29, surviving TS animals (all animals in study) were euthanized and subjected to a full gross necropsy, which included a macroscopic examination of the external surface of the body, all orifices, cranial cavity, external surface of the brain, the thoracic, abdominal and pelvic cavities and their viscera, cervical areas, carcass and genitalia. Organs were weighed as soon as possible from all main study animals at the scheduled necropsies. Tissues from animals at the terminal sacrifice, from animals found dead or moribund-sacrificed, and gross lesions from all animals, were embedded in paraffin, sectioned, stained with hematoxylin and eosin and examined microscopically by a board certified veterinary pathologist.
# Sprague-Dawley Rats = test: 4-week oral toxicity study in Sprague-Dawley rats; type: in vivo; conditions: rat
# Excerpt: as §2, with “Tissues from Groups 1 and 5 animals at” for “Tissues from animals at”
smiles,measurement,setting,value
"[2H]c1c([2H])c([2H])c2c(C(=O)c3cc(Br)c(O)c(Br)c3)c(C(C)O)oc2c1[2H] (racemic) [Compound 1, (3,5-dibromo-4-hydroxyphenyl)(2-(1-hydroxyethyl)benzofuran-3-yl-4,5,6,7-d4)methanone]",mean sUA levels versus placebo group,serum uric acid (sUA) [1],dose-dependent decreases
same,sUA reduction with versus without food,"serum uric acid (sUA) [2]; 50 mg single dose, throughout 120 hours post-dose, in words",no difference
same,"Percent change in serum uric acid, mean, time-matched (Day-1) baseline","serum uric acid (sUA) [2]; single oral dose 15 mg, fasted",−3.4%
same,"Percent change in serum uric acid, mean, time-matched (Day-1) baseline","serum uric acid (sUA) [2]; single oral dose 50 mg, fasted (suspension)",−8.9%
same,"Serum uric acid, mean","serum uric acid (sUA) [2]; single oral dose 50 mg, fasted (suspension), −12 h (pre-dose)",5.9 mg/dL
same,"Serum uric acid, mean","serum uric acid (sUA) [2]; single oral dose 50 mg, fasted (suspension), −24 h (pre-dose)",6.7 mg/dL
same,"Serum uric acid, mean","serum uric acid (sUA) [2]; single oral dose 50 mg, fasted, Capsule, −12 h (pre-dose)",5.5 mg/dL
same,"Serum uric acid, mean","serum uric acid (sUA) [2]; single oral dose 50 mg, fasted, Capsule, −18 h (pre-dose)",5.5 mg/dL
same,"Percent change in serum uric acid, mean, time-matched (Day-1) baseline","serum uric acid (sUA) [2]; single oral dose 50 mg, fed",−1.0%
same,"Serum uric acid, mean","serum uric acid (sUA) [2]; single oral dose 50 mg, fed, −12 h (pre-dose)",6.2 mg/dL
same,"Serum uric acid, mean","serum uric acid (sUA) [2]; single oral dose 50 mg, fed, −24 h (pre-dose)",6.5 mg/dL
same,"Percent change in serum uric acid, mean, time-matched (Day-1) baseline","serum uric acid (sUA) [2]; single oral dose 100 mg, fasted",−6.6%
same,"Serum uric acid, mean","serum uric acid (sUA) [2]; single oral dose 150 mg, fasted, −18 h (pre-dose)",5.7 mg/dL
same,mean sUA levels versus placebo group,"serum uric acid (sUA) [2]; single oral dose 15, 50, 100, and 150 mg fasted, at 50 mg or higher, in words",dose-dependent decreases
same,inhibition at 10 µM,"[3]; MDCK-II, at 10 μM, read-out: inhibition of URAT1 mediated uric acid accumulation",100%
same,in vitro URAT1 potency versus benzbromarone,[3]; comparison in words,better in vitro URAT1 potency than benzbromarone
same,food effect on Cmax in the fed state,"[4]; 50 mg, fed versus fasted",~33%
same,dose proportionality of AUC (AUCinf),"[4]; 15 to 150 mg, fasted, in words",dose proportional increases
same,dose proportionality of Cmax,"[4]; 15 to 150 mg, fasted, in words",slightly less than dose proportionality increase
same,power model intercept (a) of exposure versus dose,"[4]; 15 to 150 mg, fasted, AUCinf (μg · h/mL) = a × dose^b, read-out: power model intercept, AUCinf",944 ng·h/mL
same,power model intercept (a) of exposure versus dose,"[4]; 15 to 150 mg, fasted, Cmax (μg/mL) = a × dose^b, read-out: power model intercept, Cmax",96.6 ng/mL
same,AUCinf (Total),"[4]; single oral dose 50 mg, fed, suspension (C6)",51200 ng·h/mL
same,"volume of distribution, range over dose groups",[4]; single oral dose 15-150 mg,14 to 18 L
same,"% MS response, Parent",[5],82.5%
same,"formation of 6-OH benzbromarone and 5,6-di-OH benzbromarone metabolites",[5]; in words,not formed
same,human equivalent of NOAEL,"Cynomolgus Monkeys; cynomolgus monkey, in vivo",600 mg
same,effect on food consumption of body weight,"Cynomolgus Monkeys; monkey, 10-150 mg/kg/day, 28 days",no effect
same,liver weight,"Cynomolgus Monkeys; monkey, male, 150 mg/kg/day, no statistical difference",trended higher
same,effect on food consumption of body weight,"Sprague-Dawley Rats; 2-50 mg/kg/day oral gavage, 28 days",no effect
same,kidney weight,"Sprague-Dawley Rats; female, 50 mg/kg/day, 28 days",kidney weight increase
same,liver weight,"Sprague-Dawley Rats; female, ≥15 mg/kg/day, 28 days",Liver weight increase
same,human equivalent of NOAEL,Sprague-Dawley Rats; in vivo,500 mg
same,liver weight,"Sprague-Dawley Rats; male, 50 mg/kg/day, 28 days",Liver weight increase
"CCc1oc2ccccc2c1C(=O)c1cc(Br)c(O)c(Br)c1 [Benzbromarone, reference compound]","% MS response, Parent",[5],13.1%
